Measurements as given in patent US7919495B2, “Pyridyl non-aromatic nitrogen-containing heterocyclic-1-carboxylate compound” (Astellas Pharma, Inc., priority 2005, dated 2011).
Like-named read-outs stand apart in the source and are kept apart here. One block for each molecule: values may come before it.

What was measured:
[1] = system: CPA-induced urinary frequency in rat; experiment: animal or person; format: in vivo; conditions: po, 48 h, read-out: effective dose (increase of reduced effective bladder capacity)
[2] = biological target: T1, FAAH in human bladder epithelial cancer-derived cell line 5678 cells (Homo sapiens, UniProt O00519); experiment: Screening for FAAH activity-inhibiting substance with human bladder epithelial cancer-derived cell (IC50, Table 64); format: cell-based
T1 construct: host or cells: human bladder epithelial cancer-derived cell line ('5678' [sic], HTB-9)
T1 sequence (O00519 1-579): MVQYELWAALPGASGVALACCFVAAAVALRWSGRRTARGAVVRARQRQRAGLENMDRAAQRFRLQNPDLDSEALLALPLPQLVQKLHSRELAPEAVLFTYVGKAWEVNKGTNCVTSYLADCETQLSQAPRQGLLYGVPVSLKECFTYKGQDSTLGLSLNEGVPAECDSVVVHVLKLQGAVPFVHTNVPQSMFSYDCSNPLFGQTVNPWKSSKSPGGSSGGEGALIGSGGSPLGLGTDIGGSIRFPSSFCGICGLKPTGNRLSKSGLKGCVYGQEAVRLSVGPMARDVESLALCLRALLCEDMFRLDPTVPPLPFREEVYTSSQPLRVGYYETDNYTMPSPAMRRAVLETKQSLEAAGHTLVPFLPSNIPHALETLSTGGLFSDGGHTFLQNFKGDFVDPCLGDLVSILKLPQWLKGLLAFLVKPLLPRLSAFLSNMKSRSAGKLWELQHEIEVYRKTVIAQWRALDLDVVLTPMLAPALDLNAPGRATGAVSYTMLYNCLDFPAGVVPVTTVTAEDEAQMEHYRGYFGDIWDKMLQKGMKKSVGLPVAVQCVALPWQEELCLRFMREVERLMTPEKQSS
Method: Screening for FAAH Activity-Inhibiting Substance with Human Bladder Epithelial Cancer-Derived Cell
(1) Screening for FAAH Activity-Inhibiting Substance:
Human bladder epithelial cancer-derived cell line […] cells (HTB-9; ATCC) were seeded on a 48-well cell culture plate in an amount of 1×10^5 cell/well, using 10% fetal bovine serum (HyClone)-containing RPMI1640 medium (Invitrogen). After incubated at 37° C. for at least 12 hours, the cells were washed with 400 μl/well of a buffer (Hank's Balanced Salt Solution, 20 mM Hepes-NaOH (pH 7.4)). A test substance dissolved in DMSO was added to a substrate solution (the above buffer containing 3 μCi/ml radiolabeled anandamide (Anandamide [ethanolamine 1-3H]) and 10 μM anandamide) so as to have a concentration of from 0.003 nM to 30 nM. As a control, DMSO alone was added. 100 μl/well of the substrate solution was added to the above cells, and incubated in a CO2 incubator at 37° C. for 30 minutes. Next, the cell culture plate was transferred onto ice, and the substrate solution was removed by suction; and 75 μl/well of a cytolytic solution (the above buffer containing 0.5% Triton X-100, and 10 μM of FAAH-inhibitory activity-having compound, 3′-carbamoylbiphenyl-3-yl cyclohexylcarbamate (URB597; Cayman chemical; Kathuria et al., Nature Med., Vol. 9, pp. 76-81, 2003)) was added thereto, followed by stirring. The resulting cell lysate in every well was individually transferred into a 1.5 ml sample tube, to which was added 150 μl of 1:1 (by volume) chloroform/methanol solution, followed by vortexing. This was centrifuged (15000 rpm, 2 minutes), whereby the decomposed product, ethanolamine (ethanolamine 1-^3H) was separated in the upper layer (water/methanol layer) and the unreacted radiolabeled anandamide was in the lower layer (chloroform layer). 25 μl of the upper layer was transferred into a 96-well organic solvent-resistant white microplate (PicoPlate-96; Perkin Elmer), 150 μl of Microscint-20 (Perkin Elmer) was added thereto, and this was measured with a microplate scintillation counter (TopCount™; Beckman). As compared with the control, the substance that gave a decreased value was selected as an FAAH activity-inhibiting substance.
(2) Measurement of IC50 Value of FAAH Activity-Inhibiting Substance:
A test compound dissolved in DMSO to have a concentration of 10 mM was dissolved in the substrate solution so as to have a varying concentration of from 0.003 nM to 30 μM. According to the method mentioned above, the compound was analyzed for its influence on FAAH activity. As a negative control, DMSO was used. As a positive control, URB597 was added to the substrate solution to have a concentration of 10 μM. Based on the measured value of the positive control, 0%, and on the measured value of the negative control, 100%, IC50 value of the test substance was obtained.

[3] = biological target: FAAH (rat brain homogenate) (Rattus norvegicus, UniProt P97612); experiment: biochemical
FAAH (rat brain homogenate), sequence (P97612 whole entry): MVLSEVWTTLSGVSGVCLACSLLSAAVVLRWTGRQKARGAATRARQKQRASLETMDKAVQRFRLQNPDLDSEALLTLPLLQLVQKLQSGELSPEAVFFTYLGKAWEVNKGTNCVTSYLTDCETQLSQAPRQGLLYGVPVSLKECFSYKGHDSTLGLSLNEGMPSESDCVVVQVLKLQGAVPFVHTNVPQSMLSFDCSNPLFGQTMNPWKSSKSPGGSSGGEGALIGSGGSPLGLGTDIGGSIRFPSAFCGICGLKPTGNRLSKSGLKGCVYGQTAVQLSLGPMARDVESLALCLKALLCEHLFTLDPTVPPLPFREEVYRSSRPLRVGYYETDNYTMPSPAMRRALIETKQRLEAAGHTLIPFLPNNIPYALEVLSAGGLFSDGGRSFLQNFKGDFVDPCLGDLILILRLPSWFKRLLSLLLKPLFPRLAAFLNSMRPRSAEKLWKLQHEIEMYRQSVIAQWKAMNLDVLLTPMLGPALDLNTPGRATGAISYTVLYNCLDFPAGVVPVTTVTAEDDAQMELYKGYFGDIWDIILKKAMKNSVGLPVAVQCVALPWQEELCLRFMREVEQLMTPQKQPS

Structure (SMILES): O=C(O)C(=O)O.O=C(O)C1CCN(c2cncc(OC(=O)N3CCC(Oc4ccc(OCc5cccc(F)c5)cc4)CC3)c2)CC1 [Example 261, 1-(5-{[(4-{4-[(3-fluorobenzyl)oxy]phenoxy}piperidin-1-yl)carbonyl]oxy}pyridin-3-yl)piperidine-4-carboxylic acid oxalate]
- minimal effective dose [1]: 3 mg/kg
- IC50 [2]: 0.54 nM

Structure (SMILES): NC(=O)c1cncc(OC(=O)N2CCC(CCc3cccc(C(=O)N4CCCC4)c3)CC2)c1 [Example 359]
- IC50 [3]: 1.3 nM
- minimal effective dose [1]: 1 mg/kg
- IC50 [2]: 0.52 nM

Structure (SMILES): CN(C)C(=O)c1cccc(CCC2CCN(C(=O)Oc3cncc(C(N)=O)c3)CC2)c1 [Example 325]
- minimal effective dose [1]: 1 mg/kg
- IC50 [2]: 0.54 nM

Structure (SMILES): O=C(O)c1cncc(OC(=O)N2CCC(Oc3ccc(OCCC4CCCCC4)cc3)CC2)c1 [Example 228]
- IC50 [3]: 0.19 nM
- minimal effective dose [1]: 1 mg/kg
- IC50 [2]: 0.22 nM

Structure (SMILES): NC(=O)c1cncc(OC(=O)N2CCC(CCc3ccc(-c4cccc(F)c4)cc3)CC2)c1 [Example 345]
- IC50 [2]: 0.18 nM

Structure (SMILES): NC(=O)c1cncc(OC(=O)N2CCC(CCc3cccc(C(=O)NC4CCCCC4)c3)CC2)c1 [Example 351]
- IC50 [2]: 0.13 nM

Structure (SMILES): O=C(O)c1cncc(OC(=O)N2CCC(Oc3ccc(OCc4cccc(F)c4)cc3)CC2)c1 [Example 218, 5-{[(4-{4-[(3-fluorobenzyl)oxy]phenoxy}piperidin-1-yl)carbonyl]oxy}nicotinic acid]
- minimal effective dose [1]: 3 mg/kg
- IC50 [2]: 0.44 nM

Structure (SMILES): CC(C)NC(=O)c1cccc(CCC2CCN(C(=O)Oc3cncc(C(N)=O)c3)CC2)c1 [Example 372]
- IC50 [2]: 0.49 nM

Structure (SMILES): O=C(Oc1cccnc1)N1CCC(Oc2ccc(OCc3ccccc3)c(Cl)c2)CC1 [Example 70]
- IC50 [2]: 0.099 nM

Structure (SMILES): O=C(Oc1cccnc1)N1CCC(Oc2ccc(OCCC3CCCCC3)cc2)CC1 [Example 207]
- IC50 [2]: 0.31 nM

Structure (SMILES): N#Cc1cccc(COc2ccc(C(=O)N3CCN(C(=O)Oc4cccnc4)CC3)cc2)c1 [Example 151]
- IC50 [3]: 27 nM
- IC50 [2]: 0.17 nM

Structure (SMILES): COc1ccc(-c2ccc(CCC3CCN(C(=O)Oc4cncc(C(=O)O)c4)CC3)cc2)cc1 [Example 300]
- IC50 [2]: 0.43 nM

Structure (SMILES): O=C(Oc1cccnc1)N1CCN(C(=O)c2ccc(OCc3cc(F)cc(F)c3)cc2)CC1 [Example 152]
- IC50 [2]: 0.18 nM

Structure (SMILES): O=C(c1ccc(OCc2cccc(F)c2)cc1)C1CCN(C(=O)Oc2cccnc2)CC1 [Example 3]
- IC50 [2]: 0.073 nM

Structure (SMILES): Cc1ccc(OC(=O)N2CCC(Oc3ccc(OCc4cccc(F)c4)cc3)CC2)cn1 [Example 13]
- IC50 [2]: 0.27 nM

Structure (SMILES): O=C(Oc1cccnc1)N1CCC(S(=O)(=O)c2ccc(OCc3ccccc3)cc2)CC1 [Example 88]
- IC50 [2]: 0.37 nM

Structure (SMILES): O=C(O)c1cncc(OC(=O)N2CCC(CCc3ccc(-c4ccccc4)cc3)CC2)c1 [Example 281]
- IC50 [2]: 0.082 nM

Structure (SMILES): COc1cccc(-c2ccc(CCC3CCN(C(=O)Oc4cncc(C(=O)O)c4)CC3)cc2)c1 [Example 303]
- IC50 [2]: 0.12 nM

- IC50 ([2]; human bladder epithelial cancer-derived cell line 5678 cells, read-out: cell FAAH IC50): 0.69 nM
Structure (SMILES): O=C(Nc1ccccc1)C1CCN(C(=O)Oc2cccnc2)CC1 [Example 173]

Structure (SMILES): O=C(Oc1cccnc1)N1CCC(Oc2ccc(OCc3cccc(F)c3)cc2)CC1 [Example 2, (pyridin-3-yl) 4-{4-[(3-fluorobenzyl)oxy]phenoxy}piperidine-1-carboxylate]
- IC50 [3]: 0.14 nM
- minimal effective dose [1]: 3 mg/kg
- IC50 [2]: 0.11 nM

Structure (SMILES): O=C(O)c1cncc(OC(=O)N2CCC(CCCC3CCN(c4ccc5ccccc5n4)CC3)CC2)c1 [Example 315]
- IC50 [2]: 0.51 nM

Structure (SMILES): CC(=O)OCc1cncc(OC(=O)N2CCC(Oc3ccc(OCc4cccc(F)c4)cc3)CC2)c1 [Example 100]
- IC50 [2]: 0.035 nM

Structure (SMILES): O=C(Oc1cccnc1)N1CCN(C(=O)c2cccc(OCC3CCCCC3)c2)CC1 [Example 122]
- IC50 [2]: 0.15 nM

Structure (SMILES): O=C(Oc1cccnc1)N1CCC(c2cccc(OCCCc3ccccc3)c2)CC1 [Example 113]
- IC50 [2]: 0.056 nM

Structure (SMILES): O=C(Oc1cccnc1)N1CCN(C(=O)c2ccc(OCCc3cccc(Cl)c3)cc2)CC1 [Example 160]
- IC50 [2]: 0.51 nM

Structure (SMILES): Cc1cccc(N2CCC(CCCC3CCN(C(=O)Oc4cncc(C(=O)O)c4)CC3)CC2)n1 [Example 313]
- minimal effective dose [1]: 1 mg/kg
- IC50 [2]: 0.89 nM

Structure (SMILES): NC(=O)c1cncc(OC(=O)N2CCC(CCc3ccc(-c4ccc(F)cc4)cc3)CC2)c1 [Example 338]
- IC50 [2]: 0.034 nM

Structure (SMILES): O=C(Oc1cccnc1)N1CCN(C(=O)c2ccc(OCc3cccc([N+](=O)[O-])c3)cc2)CC1 [Example 154]
- IC50 [2]: 0.17 nM
